From patent publication US8592603B2, “Synthesis of 2-(4-aminophenyl) benzothiazole derivatives and use thereof” (Kaohsiung Medical University, priority 2011, dated 2013)

What was measured:
Format in all cases: cell-based, human
[1] = tested on: BCC cells; assay: Sub-G1 region analysis (PI, flow cytometry); conditions: 4 μM for 4 hours, 1 J/cm^2 UVA, 24 h after irradiation
Experimental: BCC cells were treated with compounds at 4 μM and 1 J/cm^2 UVA. Twenty-four hours after irradiation, cells were harvested by trypsinization and centrifugation. Cell pellets were resuspended in 50% cold ethanol and fixed at −20° C. After fixation, cells were washed once with cold PBS and incubated in 0.5 mL of PBS containing 100 μg/mL RNase A for 20 min at 37° C. Cells were harvested by centrifugation at 400 g for 5 min, and 250 μL of PBS containing 50 μg/mL propidium iodide (PI) was added to the pellet. Thirty minutes later, the DNA contents of 10,000 events were measured by FACSscan flow cytometer (Elite ESP, Beckman Coulter, Brea, Calif.). Histograms were analyzed using Windows Multiple Document Interface software (WinMDI). Cells with DNA content less than that in untreated cells in G0/G1 were considered apoptotic. To investigate the effects of compounds 6 on cell cycle progression of BCC cells, the DNA content of cell nuclei was measured by flow cytometric analysis. […] BCC cells were treated with 4 μM agents for 4 hours followed by 1 J/cm^2 UVA irradiation. Twenty-four hours after irradiation, the PI reagent was used. Approximately 10000 cells from each group were analyzed with the FACScan flow cytometer. The apoptotic effects in 2.2% (control), 6.5% (6a), 13.4% (6b), 29.2% (6c), 24.4% (6d), 6.5% (6e), 35.4% (6f), 13.6% (6g), 13.8% (6h), 14.8% (6i) and 6.4% (6j) of sub-G1 DNA peak were obtained (% represented the percentage of cell counts).

[2] = tested on: caspase-3; assay: Caspase-3 colorimetric assay; conditions: BCC cells, 6f-UVA treatment, compared with untreated control, p<0.01 (FIG. 4A)
Experimental: (A) The increased enzymatic activities of the caspase-3 in apoptotic were determined by colorimetric reaction. The cleavage of peptide by the caspase releases the chromophore pNA (p-nitroaniline), which can be quantified spectrophotometrically at a wavelength of 405 nm. (B) Dot plots for BCC cells treated with various concentrations of 6f-UVA and then stained with PI and an annexin V-FITC conjugate specifically detecting the exposure of PS residues at the cell surface. (C) Morphological observation and annexin V/PI double stain were used for the detection of fibroblasts apoptosis. Approximately 10000 cells from each group were analyzed by flow cytometry. Data shown are of a representative experiment repeated three times with similar results. ** p<0.01 as compared with the control.
Twenty-four hours after irradiation, cells were collected by centrifugation, washed once with PBS, and cell pellets were counted and resuspended in 25 μL/1×10^6 cells of cold lysis buffer and homogenized. Homogenates were centrifuged at 12,000 rpm for 10 min at 4° C., supernatants were used for measuring caspase-3 activity using an ELISA-based assay, according to the manufacturer's instructions. (R&D Systems, Minneapolis, Minn.). The results were presented as mean±SD.

[3] = tested on: ERK; assay: Western blot analysis of MAPK phosphorylation: ERK; conditions: BCC cells, 6f-UVA at 4 μM, compared with untreated control (FIG. 6A)
Experimental: (§1) (A) After exposure to different concentration of 6f-UVA, cell lysates were collected and immunoblotted with specific antibodies as indicated. For the internal control, the same amounts of protein extract were also probed with antibody against actin. (B) As a control, the expression level of p-ERK was determined in the presence of oligomycin (25 μM) and ATP (1×10^−4M)
Total cell extracts from cultured BCC cells were obtained by lysing the cells in ice-cold RIPA buffer (1×PBS, 1% NP-40, 0.5% sodium deoxycholate, 0.1% SDS) containing 100 μg/mL PMSF, 2 μg/mL aprotinin, 2 μg/mL leupeptin and 100 μg/mL NaF. After centrifugation at 14,000 g for 30 min, protein in the supernatants was quantified by Bradford method (Bio-Rad). Forty micrograms of protein per lane was applied in 10% SDS-poly-acrylamide gel. After electrophoresis, protein was transferred from the gel to polyvinylidene difluoride (PVDF) membrane (Millipore, Bedford, Mass.). The membranes were blocked at room temperature for 1 h in PBS+0.1% Tween 20 (PBS-T) containing 5% skim milk. After being briefly rinsed with PBS-T, the blots were probed with respective primary antibodies at room temperature for 2 h or at 4° C. overnight. Rabbit polyclonal antibodies against JNK (46 kDa), p38 (38 kDa), ERK (42, 44 kDa), and mouse monoclonal antibody against p-JNK, p-p38, p-ERK were purchased from Santa Cruz Biotechnology (Santa Cruz, Calif.). Mouse monoclonal antibody against actin was purchased from Chemicon Int. Inc. (Temecula, Calif.). For the blocking test, 25 μM oligomycin (Sigma, a mitochondria-specific F0F1 ATP synthase inhibitor) or 1×10^−4M ATP (Sigma) was added to the media 30 min before treated with 6f-UVA, respectively. The membrane was incubated with the corresponding horseradish peroxidase-labeled secondary antibody (Santa Cruz Biotechnology) at room temperature for 1 h. […] The relative amounts of specific proteins were quantified by densitometry scanning of X-ray films and analyzed by Eagle Eye Image System (Stratagene, La Jolla, Calif.)

[4] = tested on: p38; assay: Western blot analysis of MAPK phosphorylation: p38; conditions: BCC cells, 6f-UVA at 4 μM, compared with untreated control (FIG. 6A)
Experimental: as §1
Total cell extracts from cultured BCC cells were obtained by lysing the cells in ice-cold RIPA buffer (1×PBS, 1% NP-40, 0.5% sodium deoxycholate, 0.1% SDS) containing 100 μg/mL PMSF, 2 μg/mL aprotinin, 2 μg/mL leupeptin and 100 μg/mL NaF. After centrifugation at 14,000 g for 30 min, protein in the supernatants was quantified by Bradford method (Bio-Rad). Forty micrograms of protein per lane was applied in 10% SDS-poly-acrylamide gel. After electrophoresis, protein was transferred from the gel to polyvinylidene difluoride (PVDF) membrane (Millipore, Bedford, Mass.). The membranes were blocked at room temperature for 1 h in PBS+0.1% Tween 20 (PBS-T) containing 5% skim milk. After being briefly rinsed with PBS-T, the blots were probed with respective primary antibodies at room temperature for 2 h or at 4° C. overnight. […] The relative amounts of specific proteins were quantified by densitometry scanning of X-ray films and analyzed by Eagle Eye Image System (Stratagene, La Jolla, Calif.)

caspase-3 activity [2]: increased
SMILES: Nc1ccc(-c2nc3ccc(C(F)(F)F)cc3s2)cc1 [Formula 6f, 2-(4-Aminophenyl)-6-trifluoromethylbenzothiazole]
sub-G1 DNA peak (apoptotic effects, percentage of cell counts) [1]: 35.4%
phosphorylation of ERK (p-ERK) [3]: increased
phosphorylation of p38 (p-p38) [4]: increased
